Test results published in US11919908B2, “Substituted pyrrolo[2,3-d]pyrimidine compounds as JAK2 V617F inhibitors” (Incyte Corporation, priority 2020, dated 2024).

Legend:
[1] = biological target: T1, pseudo-kinase domain (JH2) of human Wild Type JAK2 (Homo sapiens, UniProt O60674, F794H/W659A/W777A); test: JAK2 LanthaScreen JH2-WT Binding Assay; details: 50 nM Fluorescent JAK2-JH2 Tracer, 1 hour at 25° C.
T1 construct: pseudo-kinase domain (JH2, amino-acids 536-812 with 3 surface mutations W659A, W777A, F794H); His (C); purchased BPS Bioscience 79463; host or cells: baculovirus expression system
Method: (§1) Example B. JAK2 LanthaScreen JH2-WT Binding Assay JAK2 JH2-WT binding assay utilizes pseudo-kinase domain (JH2, amino-acids 536-812 with 3 surface mutations […]) of human Wild Type JAK2 expressed as C-terminal His-Avi-tagged, biotinylated protein in a baculovirus expression system (BPS Bioscience, Catalog #79463). The assay was conducted in black 384-well polystyrene plates in a final reaction volume of 20 μL. JAK2 JH2-WT (0.145 nM) was incubated with compounds (100 nL serially diluted in DMSO) in the presence of 50 nM Fluorescent JAK2-JH2 Tracer (MedChem Express Catalog #HY-102055) and 0.25 nM Streptavidin-Tb cryptate (Cisbio Part #610SATLB) in assay buffer (50 mM Tris, pH=7.5, 10 mM MgCl2, 0.01% Brij-35, 0.1% BSA, 1 mM EGTA, 5% Glycerol and 5 mM DTT). Non-specific binding was accessed in the presence of 2 mM ATP. After incubation for 1 hour at 25° C., LanthaScreen signals were read on a PHERAstar FS plate reader (BMG LABTECH). Data was analyzed with IDBS XLfit and GraphPad Prism 5.0 software using a four parameter dose response curve to determine IC50 for each compound.

[2] = biological target: T2, pseudo-kinase domain (JH2) of human V617F mutant JAK2 (Homo sapiens, UniProt O60674, F794H/V617F/W659A/W777A); test: JAK2 LanthaScreen JH2-V617F Binding Assay; details: 50 nM Fluorescent JAK2-JH2 Tracer, 1 hour at 25° C.
T2 construct: pseudo-kinase domain (JH2, amino-acids 536-812 with 3 surface mutations W659A, W777A, F794H); His (C); purchased BPS Bioscience 79498; host or cells: baculovirus expression system
Method: as §1, with “C.” for “B.”, “JH2-V617F” for “JH2-WT”, “V617F mutant” for “Wild Type”, “#79498).” for “#79463).”, “JH2-V617F (0.26” for “JH2-WT (0.145”

[3] = biological target: T3, catalytic domain (JH1) of human JAK2 (Homo sapiens, UniProt O60674); test: JAK2 LanthaScreen JH1 Binding Assay; details: 50 nM Fluorescent JAK2-JH1 Tracer, 2 hours at 25° C.
T3 construct: catalytic domain (JH1, amino acids 826-1132) of human JAK2; FLAG (N); purchased Carna Biosciences 08-445-20N; host or cells: baculovirus expression system
Method: Example A. JAK2 LanthaScreen […] Binding Assay JAK2 JH1 binding assay utilizes catalytic domain (JH1, amino acids 826-1132) of human JAK2 expressed as N-terminal FLAG-tagged, biotinylated protein in a baculovirus expression system (Carna Biosciences, Product #08-445-20N). The assay was conducted in black 384-well polystyrene plates in a final reaction volume of 20 μL. JAK2 JH1 (1.5 nM) was incubated with compounds (100 nL serially diluted in DMSO) in the presence of 50 nM Fluorescent JAK2-JH1 Tracer and 0.5 nM Streptavidin-Tb cryptate (Cisbio Part #610SATLB) in assay buffer (50 mM Tris, pH=7.5, 10 mM MgCl2, 0.01% Brij-35, 0.1% BSA, 1 mM EGTA, 5% Glycerol and 5 mM DTT). Non-specific binding was accessed in the presence of 2 mM ATP. After incubation for 2 hours at 25° C., LanthaScreen signals were read on a PHERAstar FS plate reader (BMG LABTECH). Data was analyzed with IDBS XLfit and GraphPad Prism 5.0 software using a four parameter dose response curve to determine IC50 for each compound.

T2 sequence (O60674 536-812 V617F/W659A/W777A/F794H): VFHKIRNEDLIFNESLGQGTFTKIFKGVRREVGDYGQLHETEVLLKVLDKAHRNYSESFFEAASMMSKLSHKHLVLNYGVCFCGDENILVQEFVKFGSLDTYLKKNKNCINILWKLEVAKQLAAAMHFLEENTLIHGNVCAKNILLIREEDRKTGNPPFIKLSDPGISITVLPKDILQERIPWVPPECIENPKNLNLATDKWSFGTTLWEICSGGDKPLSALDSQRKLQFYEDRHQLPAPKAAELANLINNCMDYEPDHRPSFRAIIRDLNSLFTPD
T1 sequence (O60674 536-812 W659A/W777A/F794H): as the sequence (O60674 536-812 V617F/W659A/W777A/F794H) above, with F82V counted along it
T3 sequence (O60674 826-1132): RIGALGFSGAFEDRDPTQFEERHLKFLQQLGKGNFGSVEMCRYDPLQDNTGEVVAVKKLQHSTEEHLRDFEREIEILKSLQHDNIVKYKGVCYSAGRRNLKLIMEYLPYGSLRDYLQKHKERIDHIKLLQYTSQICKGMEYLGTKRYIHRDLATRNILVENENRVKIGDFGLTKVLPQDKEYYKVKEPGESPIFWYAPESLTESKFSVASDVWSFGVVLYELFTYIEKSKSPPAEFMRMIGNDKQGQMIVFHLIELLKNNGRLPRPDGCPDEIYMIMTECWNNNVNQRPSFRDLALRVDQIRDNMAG

Row | IC50 [1] [nM] | IC50 [2] [nM] | IC50 [3] [nM] | Compound
1 | 500 to 1000 | 500 to 1000 | 1000 to 2500 | 4-(2-Amino-5- (2,3-difluorobenzofuran-6- yl)-4-oxo-4,7-dihydro-3H- pyrrolo[2,3-d]pyrimidin-6- yl)-N,N-dimethylbenzene sulfonamide [Example 26]
2 | > 2500 | > 2500 | > 2500 | Nc1nc2[nH]c(-c3ccccc3)c(-c3ccccc3OC(F)F)c2c(=O)[nH]1 [Example 1, 2-Amino-5-(2-(difluoromethoxy)phenyl)-6-phenyl-3,7-dihydro-4H-pyrrolo[2,3-d]pyrimidin-4-one]
3 | 500 to 1000 | 500 to 1000 | 1000 to 2500 | Cc1cccc(-c2c(-c3ccc(S(=O)(=O)N(C)C)cc3)[nH]c3nc(N)[nH]c(=O)c23)c1 [Example 2, 4-(2-Amino-4-oxo-5-(3-tolyl)-4,7-dihydro-3H-pyrrolo[2,3-d]pyrimidin-6-yl)-N,N-dimethylbenzenesulfonamide]
4 | 100 to 500 | 100 to 500 | > 2500 | CN(C)S(=O)(=O)c1ccc(-c2[nH]c3nc(N)[nH]c(=O)c3c2-c2cccc3ccoc23)cc1 [Example 3, 4-(2-Amino-5-(benzofuran-7-yl)-4-oxo-4,7-dihydro-3H-pyrrolo[2,3-d]pyrimidin-6-yl)-N,N-dimethylbenzenesulfonamide]
5 | 500 to 1000 | 500 to 1000 | 1000 to 2500 | CN(C)S(=O)(=O)c1ccc(-c2[nH]c3nc(N)[nH]c(=O)c3c2-c2cccc(CO)c2)cc1 [Example 4, 4-(2-Amino-5-(3-(hydroxymethyl)phenyl)-4-oxo-4,7-dihydro-3H-pyrrolo [2,3-d]pyrimidin-6-yl)-N,N-dimethyl-benzene sulfonamide]
6 | 1000 to 2500 | 1000 to 2500 | > 2500 | CN(C)S(=O)(=O)c1ccc(-c2[nH]c3nc(N)[nH]c(=O)c3c2-c2ccccc2Cl)cc1 [Example 5, 4-(2-Amino-5-(2-chlorophenyl)-4-oxo-4,7-dihydro-3H-pyrrolo[2,3-d]pyrimidin-6-yl)-N,N-dimethylbenzene sulfonamide]
7 | > 2500 | > 2500 | > 2500 | CC(C)c1cccc(-c2c(-c3ccc(S(=O)(=O)N(C)C)cc3)[nH]c3nc(N)[nH]c(=O)c23)c1 [Example 6, 4-(2-Amino-5-(3-isopropylphenyl)-4-oxo-4,7-dihydro-3H-pyrrolo [2,3-d]pyrimidin-6-yl)-N,N-dimethylbenzene sulfonamide]
8 | 500 to 1000 | 500 to 1000 | > 2500 | CN(C)S(=O)(=O)c1ccc(-c2[nH]c3nc(N)[nH]c(=O)c3c2-c2cccc3c2OCCO3)cc1 [Example 7, 4-(2-Amino-5-(2,3-dihydrobenzo[b][1,4]dioxin-5-yl)-4-oxo-4,7-dihydro-3H-pyrrolo [2,3-d]pyrimidin-6-yl)-N,N-dimethylbenzene sulfonamide]
9 | 1000 to 2500 | 1000 to 2500 | > 2500 | CN1CCC(c2ccc(-c3c(-c4ccc(S(=O)(=O)N(C)C)cc4)[nH]c4nc(N)[nH]c(=O)c34)cc2)CC1 [Example 8, 4-(2-Amino-5-(4-(1-methylpiperidin-4-yl)phenyl)-4-oxo-4,7-dihydro-3H-pyrrolo[2,3-d]pyrimidin-6-yl)-N,N-dimethylbenzene sulfonamide]
10 | 500 to 1000 | 500 to 1000 | 1000 to 2500 | CN(C)S(=O)(=O)c1ccc(-c2[nH]c3nc(N)[nH]c(=O)c3c2-c2ccc(C(F)F)cc2)cc1 [Example 9, 4-(2-Amino-5-(4-(difluoromethyl)phenyl)-4-oxo-4,7-dihydro-3H-pyrrolo [2,3-d]pyrimidin-6-yl)-N,N-dimethylbenzene sulfonamide]
11 | 500 to 1000 | 500 to 1000 | > 2500 | CN(C)S(=O)(=O)c1ccc(-c2[nH]c3nc(N)[nH]c(=O)c3c2-c2cccc3c2OCCC3)cc1 [Example 10, 4-(2-Amino-5-(chroman-8-yl)-4-oxo-4,7-dihydro-3H-pyrrolo[2,3-d]pyrimidin-6-yl)-N,N-dimethylbenzene sulfonamide]
12 | 100 to 500 | 100 to 500 | 1000 to 2500 | CNC(=O)c1ccc(-c2c(-c3ccc(S(=O)(=O)N(C)C)cc3)[nH]c3nc(N)[nH]c(=O)c23)cc1 [Example 11, 4-(2-Amino-6-(4-(N,N-dimethyl-sulfamoyl)phenyl)-4-oxo-4,7-dihydro-3H-pyrrolo[2,3-d]pyrimidin-5-yl)-N-methylbenzamide]
13 | > 2500 | > 2500 | 1000 to 2500 | CN(C)S(=O)(=O)c1ccc(-c2[nH]c3nc(N)[nH]c(=O)c3c2-c2cccc3c2OC(F)(F)O3)cc1 [Example 12, 4-(2-Amino-5-(2,2-difluorobenzo[d] [1,3]dioxol-4-yl)-4-oxo-4,7-dihydro-3H-pyrrolo[2,3-d]pyrimidin-6-yl)-N,N-dimethylbenzene sulfonamide]
14 | 100 to 500 | 100 to 500 | 1000 to 2500 | CN(C)S(=O)(=O)c1ccc(-c2[nH]c3nc(N)[nH]c(=O)c3c2-c2ccc(S(C)(=O)=O)cc2)cc1 [Example 13, 4-(2-Amino-5-(4-(methylsulfonyl)phenyl)-4-oxo-4,7-dihydro-3H-pyrrolo[2,3-d]pyrimidin-6-yl)-N,N-dimethylbenzene sulfonamide]
15 | 1000 to 2500 | 1000 to 2500 | 1000 to 2500 | CN(C)S(=O)(=O)c1ccc(-c2[nH]c3nc(N)[nH]c(=O)c3c2-c2cccc(C(N)=O)c2)cc1 [Example 14, 3-(2-Amino-6-(4-(N,N-dimethylsulfamoyl)phenyl)-4-oxo-4,7-dihydro-3H-pyrrolo [2,3-d]pyrimidin-5-yl)benzamide]
16 | > 2500 | > 2500 | > 2500 | CN(C)S(=O)(=O)c1ccc(-c2[nH]c3nc(N)[nH]c(=O)c3c2-c2ccccc2CC#N)cc1 [Example 15, 4-(2-Amino-5-(2-(cyanomethyl)phenyl)-4-oxo-4,7-dihydro-3H-pyrrolo[2,3-d]pyrimidin-6-yl)-N,N-dimethylbenzene sulfonamide]
17 | > 2500 | > 2500 | > 2500 | CN(C)S(=O)(=O)c1ccc(-c2[nH]c3nc(N)[nH]c(=O)c3c2-c2cccc3c2cnn3C)cc1 [Example 16, 4-(2-Amino-5-(1-methyl-1H-indazol-4-yl)-4-oxo-4,7-dihydro-3H-pyrrolo[2,3-d]pyrimidin-6-yl)-N,N-dimethylbenzene sulfonamide]
18 | 500 to 1000 | 500 to 1000 | 100 to 500 | CN(C)S(=O)(=O)c1ccc(-c2[nH]c3nc(N)[nH]c(=O)c3c2-c2cccc(C#N)c2)cc1 [Example 17, 4-(2-Amino-5-(3-cyanophenyl)-4-oxo-4,7-dihydro-3H-pyrrolo [2,3-d]pyrimidin-6-yl)-N,N-dimethyl-benzene sulfonamide]
19 | > 2500 | > 2500 | > 2500 | CN(C)S(=O)(=O)c1ccc(-c2[nH]c3nc(N)[nH]c(=O)c3c2-c2ccccc2C#N)cc1 [Example 18, 4-(2-Amino-5-(2-cyano-phenyl)-4-oxo-4,7-dihydro-3H-pyrrolo[2,3-d]pyrimidin-6-yl)-N,N-dimethylbenzene sulfonamide]
